Laboratory results reported in ChEMBL document CHEMBL3217528, “Bicyclic imidazole-4-one derivatives: a new class of antagonists for the orphan G protein-coupled receptors GPR18 and GPR55” (Medchemcomm, 2014).

Assays:
[1] = target: T1, N-arachidonyl glycine receptor (Homo sapiens) (UniProt Q14330); experiment: Antagonist activity against human GPR18 expressed in CHO cells assessed as reduction in delta9-THC-induced beta-arrestin recruitment at 10 uM by beta-galactosidase enzyme fragment complementation method; type: cell-based
T1 sequence (whole entry): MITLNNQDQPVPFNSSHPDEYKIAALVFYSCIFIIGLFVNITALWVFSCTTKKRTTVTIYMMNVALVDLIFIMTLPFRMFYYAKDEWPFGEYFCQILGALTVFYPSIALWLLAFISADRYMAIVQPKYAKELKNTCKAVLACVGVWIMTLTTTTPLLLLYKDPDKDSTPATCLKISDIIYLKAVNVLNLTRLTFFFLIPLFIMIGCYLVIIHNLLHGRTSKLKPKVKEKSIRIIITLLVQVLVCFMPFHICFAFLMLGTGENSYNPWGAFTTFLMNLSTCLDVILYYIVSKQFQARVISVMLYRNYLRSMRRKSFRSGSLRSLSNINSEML

[2] = target: T1, N-arachidonyl glycine receptor (Homo sapiens); experiment: Agonist activity at human GPR18 expressed in CHO cells assessed as induction of beta-arrestin recruitment by beta-galactosidase enzyme fragment complementation method relative to delta9-THC; type: cell-based; set-up: concentration or dose not given beside the values
Cannabinoid receptor 2 [3] = target: T2, Cannabinoid receptor 2 (Homo sapiens, UniProt P34972); experiment: Displacement of [3H]CP55,940 from human recombinant CB2 receptor expressed in HEK293 cells; type: cell-based
T2 sequence (P34972 whole entry): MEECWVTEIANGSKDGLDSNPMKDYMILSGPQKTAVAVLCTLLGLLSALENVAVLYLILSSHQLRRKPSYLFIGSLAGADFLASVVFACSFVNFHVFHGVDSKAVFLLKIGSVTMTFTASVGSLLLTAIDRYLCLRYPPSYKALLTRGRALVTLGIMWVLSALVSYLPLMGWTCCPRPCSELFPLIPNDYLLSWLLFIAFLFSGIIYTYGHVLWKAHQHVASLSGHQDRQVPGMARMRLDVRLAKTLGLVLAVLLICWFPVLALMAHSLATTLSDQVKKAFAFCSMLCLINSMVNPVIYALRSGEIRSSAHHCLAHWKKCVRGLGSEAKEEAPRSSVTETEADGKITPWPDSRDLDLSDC

Cannabinoid receptor 1 [4] = target: Cannabinoid receptor 1 (Rattus norvegicus, UniProt P20272); experiment: Displacement of [3H]CP55,940 from CB1 receptor in rat brain cortical membranes; type: cell membranes
Cannabinoid receptor 1 (Rattus norvegicus, UniProt P20272), sequence (P20272 whole entry): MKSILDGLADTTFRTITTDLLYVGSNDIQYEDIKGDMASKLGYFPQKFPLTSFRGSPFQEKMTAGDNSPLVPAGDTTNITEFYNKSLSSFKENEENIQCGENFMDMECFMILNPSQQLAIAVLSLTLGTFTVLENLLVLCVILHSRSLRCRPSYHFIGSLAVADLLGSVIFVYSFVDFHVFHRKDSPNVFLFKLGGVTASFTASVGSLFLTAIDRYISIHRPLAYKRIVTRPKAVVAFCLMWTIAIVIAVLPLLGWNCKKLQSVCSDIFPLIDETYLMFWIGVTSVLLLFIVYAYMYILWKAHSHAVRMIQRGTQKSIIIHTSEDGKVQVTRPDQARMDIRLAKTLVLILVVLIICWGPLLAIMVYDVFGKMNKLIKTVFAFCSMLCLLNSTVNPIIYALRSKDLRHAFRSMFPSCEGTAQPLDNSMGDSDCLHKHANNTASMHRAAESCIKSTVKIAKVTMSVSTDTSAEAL

Cannabinoid receptor 2 [5] = target: T2, Cannabinoid receptor 2; experiment: Displacement of [3H]CP55,940 from human recombinant CB2 receptor expressed in HEK293 cells at 10 uM; type: cell-based
[6] = target: T3, G-protein coupled receptor 55 (Homo sapiens, UniProt Q9Y2T6); experiment: Antagonist activity against human GPR55 expressed in CHO cells assessed as reduction in LPI-induced beta-arrestin recruitment by beta-galactosidase enzyme fragment complementation method; type: cell-based
T3 sequence (Q9Y2T6 whole entry, the tested form may be a part): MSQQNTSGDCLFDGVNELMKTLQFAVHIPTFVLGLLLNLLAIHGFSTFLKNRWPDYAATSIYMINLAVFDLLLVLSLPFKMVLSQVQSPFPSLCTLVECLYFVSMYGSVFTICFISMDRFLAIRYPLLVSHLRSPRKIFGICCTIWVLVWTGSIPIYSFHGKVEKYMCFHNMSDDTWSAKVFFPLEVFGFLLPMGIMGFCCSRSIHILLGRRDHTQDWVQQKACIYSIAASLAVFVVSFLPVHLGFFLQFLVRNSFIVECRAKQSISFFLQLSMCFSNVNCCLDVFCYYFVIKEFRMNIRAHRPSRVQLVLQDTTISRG

[7] = target: T3, G-protein coupled receptor 55; experiment: Antagonist activity against human GPR55 expressed in CHO cells assessed as reduction in LPI-induced beta-arrestin recruitment at 10 uM by beta-galactosidase enzyme fragment complementation method; type: cell-based
[8] = target: T4, N-arachidonyl glycine receptor (Homo sapiens, UniProt Q14330); experiment: Antagonist activity against human GPR18 expressed in CHO cells assessed as reduction in delta9-THC-induced beta-arrestin recruitment by beta-galactosidase enzyme fragment complementation method; type: cell-based
T4 sequence (Q14330 whole entry): T1 sequence (whole entry)

Cannabinoid receptor 1 [9] = target: T5, Cannabinoid receptor 1 (Homo sapiens, UniProt P21554); experiment: Displacement of [3H]CP55,940 from human recombinant CB1 receptor expressed in CHO-K1 cells; type: cell-based
T5 sequence (P21554 whole entry): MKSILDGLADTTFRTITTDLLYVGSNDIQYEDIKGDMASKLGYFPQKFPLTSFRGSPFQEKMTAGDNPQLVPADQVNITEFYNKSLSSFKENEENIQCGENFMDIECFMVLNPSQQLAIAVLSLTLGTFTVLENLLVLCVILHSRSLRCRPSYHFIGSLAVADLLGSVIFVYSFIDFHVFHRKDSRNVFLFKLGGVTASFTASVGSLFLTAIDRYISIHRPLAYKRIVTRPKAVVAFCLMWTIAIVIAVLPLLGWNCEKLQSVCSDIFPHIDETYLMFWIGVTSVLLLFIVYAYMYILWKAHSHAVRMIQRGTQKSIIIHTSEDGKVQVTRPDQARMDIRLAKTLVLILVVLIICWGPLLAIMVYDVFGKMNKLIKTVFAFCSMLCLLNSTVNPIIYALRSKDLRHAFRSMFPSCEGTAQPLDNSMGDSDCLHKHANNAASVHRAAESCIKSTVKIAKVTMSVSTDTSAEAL

[10] = target: Cannabinoid receptor 1 (Rattus norvegicus) (UniProt P20272); experiment: Displacement of [3H]CP55,940 from CB1 receptor in rat brain cortical membranes at 10 uM; type: cell membranes
Cannabinoid receptor 1 (Rattus norvegicus), sequence (P20272 whole entry): as the sequence (P20272 whole entry) above

Cannabinoid receptor 1 [11] = target: T5, Cannabinoid receptor 1; experiment: Displacement of [3H]CP55,940 from human recombinant CB1 receptor expressed in CHO-K1 cells at 10 uM; type: cell-based
[12] = target: T3, G-protein coupled receptor 55; experiment: Agonist activity at human GPR55 expressed in CHO cells assessed as induction of LPI-induced beta-arrestin recruitment by beta-galactosidase enzyme fragment complementation method relative to LPI; type: cell-based; set-up: concentration or dose not given beside the values

SMILES	inhibition [1]	Activity [2]	Ki (Cannabinoid receptor 2 [3])	Ki (Cannabinoid receptor 1 [4])	inhibition (Cannabinoid receptor 2 [5])	IC50 [6]	inhibition [7]	IC50 [8]	Ki (Cannabinoid receptor 1 [9])	inhibition [10]	inhibition (Cannabinoid receptor 1 [11])	Activity [12]
CCOC(=O)C1CN2C(=NC(=O)C2(c2ccccc2)c2ccccc2)S1 (configuration not stated)	0%	7%	> 10 µM	> 10 µM	-5%	> 10 µM	41%	> 10 µM	> 10 µM	0%	26%	58%
CCOC(=O)COc1cccc(/C=C2\N=C3SCCCCN3C2=O)c1	22%	19%	> 10 µM	> 10 µM	39%	> 10 µM	4%	> 10 µM	4.78 µM	27%		0%
CC(C)c1ccc(/C=C2\N=C3SCCCN3C2=O)cc1	4%	0%	> 10 µM	> 10 µM	17%	> 10 µM	38%	> 10 µM	> 10 µM	6%	12%	13%
COc1ccc(/C=C2\N=C3SCCCN3C2=O)cc1OC	2%	0%	> 10 µM	> 10 µM	18%	> 10 µM	12%	> 10 µM	> 10 µM	3%	7%	6%
O=C1/C(=C/c2ccc(Cl)cc2Cl)N=C2SCCCN12	14%	0%	> 10 µM		24%	6.76 µM		> 10 µM	> 10 µM		8%	0%
O=C1/C(=C/c2c(Cl)cccc2Cl)N=C2SCCCN12	0%	12%	> 10 µM		4%	> 10 µM	0%	> 10 µM	> 10 µM		14%	15%
O=C1/C(=C/c2ccc(Br)cc2)N=C2SCCCN12	13%	0%	> 10 µM	> 10 µM	8%	> 10 µM	16%	> 10 µM	> 10 µM	21%	29%	26%
O=C1/C(=C/c2cccc(OCc3ccc(Cl)c(Cl)c3)c2)N=C2SCCCN12		0%	> 10 µM	> 10 µM	0%	11.8 µM		6.16 µM	> 10 µM		15%	4%
O=C1N=C2SCCCN2C1(c1ccccc1)c1ccccc1	0%	11%	> 10 µM	> 10 µM	9%	> 10 µM	2%	> 10 µM	> 10 µM	4%	13%	53%
COc1cccc(/C=C2\N=C3SCCCN3C2=O)c1OC	10%	10%	> 10 µM		15%	16.4 µM		> 10 µM	> 10 µM		18%	0%
COc1ccc(/C=C2\N=C3SCCCN3C2=O)cc1	10%	0%	> 10 µM	> 10 µM	6%	> 10 µM	16%	> 10 µM	> 10 µM	5%	39%	37%
O=C1/C(=C/c2cccc([N+](=O)[O-])c2)N=C2SCCCN12	6%	2%	> 10 µM	> 10 µM	10%	> 10 µM	20%	> 10 µM	> 10 µM	8%	19%	21%
